Test results as given in paper PMC10287695, “Non-covalent inhibitors of thioredoxin glutathione reductase with schistosomicidal activity in vivo” (Nature Communications, 2023).
Where two headings read alike, the source gives them in different places. Marks after values point to notes of the source that are not given here.

Experiments:
S. mansoni adult worms [1] = assay: Schistosomicidal activity ex vivo, adult worms (Cell Titer Glo), alone or with channel blockers; type: cell-based; conditions: for LD50 ex vivo S. mansoni adult: 24 h exposure, compound alone
Method: Three-week old, female Swiss-Webster mice obtained from the Charles River were housed in the Comparative Research Center of Rush University Medical Center. Mice were infected by percutaneous tail exposure to about 200 S. mansoni or 50 S. japonicum cercaria for adult worms and about 1000 cercaria for juvenile S. mansoni worms through natural transdermal penetration of the cercariae for 1 h[81].
DMSO formulated compounds were diluted with phenol red free M199 medium or RPMI medium for NTS or juvenile and adult worms, respectively, at <1% DMSO final concentrations. NTS, juvenile and adult worms from overnight cultures were tested against compounds in triplicate. Controls were treated with DMSO alone or 5 µM AF as a positive control in appropriate medium. […] Schistosome viabilities in the presence of the compounds were assessed using this formula: % Viability = Averages of Test / Averages of DMSO Control x 100.

Vero cells = assay: Cytotoxicity in mammalian cells (Cell Titer Glo); type: cell-based; conditions: for LD50 ex vivo VERO: African green monkey, 24 h; for EC50: Chlorocebus sabaeus, Vero, estimate from raw data, read-out: EC50 viability of Vero cells
Method: Following overnight incubation, formulated DMSO-compound stock solutions were diluted with DMEM at <1% DMSO final concentrations. […] Vero cells treated similarly with different concentrations of PZQ, MZM and AF (Cayman Chemicals) were used as positive controls.

S. mansoni TGR = molecular target: T1, S. mansoni TGR (Schistosoma mansoni, UniProt Q962Y6); assay: S. mansoni TGR enzyme inhibition (DTNB reduction); type: biochemical; conditions: for IC50: 15 min preincubation (enzyme + 100 µM NADPH + compound); for inhibition at 15 µM: compound 15 µM; for inhibition at 30 µM: compound 30 µM
T1 construct: made in house
T1 sequence (Q962Y6 1-598): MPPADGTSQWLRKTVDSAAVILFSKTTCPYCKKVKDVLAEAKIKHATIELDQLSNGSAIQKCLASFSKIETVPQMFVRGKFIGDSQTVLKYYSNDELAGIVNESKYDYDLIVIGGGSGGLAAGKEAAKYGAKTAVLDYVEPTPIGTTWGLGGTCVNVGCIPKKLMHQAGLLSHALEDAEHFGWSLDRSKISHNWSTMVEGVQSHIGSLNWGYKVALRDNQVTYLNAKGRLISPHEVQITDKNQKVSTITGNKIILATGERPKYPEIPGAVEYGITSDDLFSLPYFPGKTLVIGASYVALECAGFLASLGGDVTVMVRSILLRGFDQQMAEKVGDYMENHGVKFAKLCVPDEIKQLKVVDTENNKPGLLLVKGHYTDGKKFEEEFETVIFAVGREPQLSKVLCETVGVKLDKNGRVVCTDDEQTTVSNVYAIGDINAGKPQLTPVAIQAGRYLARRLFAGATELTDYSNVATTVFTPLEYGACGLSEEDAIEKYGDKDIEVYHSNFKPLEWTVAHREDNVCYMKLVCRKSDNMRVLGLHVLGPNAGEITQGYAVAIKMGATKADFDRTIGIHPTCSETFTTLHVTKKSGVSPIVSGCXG

S. mansoni adult worms [2] = assay: GSH/GSSG ratio in ex vivo adult worms; type: cell-based; conditions: for Decrease (%) in GSH/GSSG ratio: adult worms, 3 h exposure to compounds at 50 μM; for Reduction (%) in GSH/GSSG ratio: third data set
Method: We assessed GSH/GSSG levels experimentally by treating S. mansoni adult worms with 50 µM of compounds, or respective controls 5 µM Auranofin, 50 µM PZQ or 50 µM MZM and 0.01% DMSO for 3 h. Worm homogenate was prepared by washing three times with PBS to remove residual compounds and ten volumes of ice cold 5% sulfosalicylic acid was added. Worms were manually homogenized on ice using VWR Pellet Mixer Adaptor. The worm suspension was centrifuged at 14000 × g, 4 °C for 10 min and the acid supernatants transferred. An equal volume of ice-cold neutralization buffer (500 mM HEPES, pH 8.0) was added to the acid supernatants.
GSH/GSSG assay was performed by diluting the acid supernatant (5-fold) with ice-cold dilution buffer (250 mM HEPES, pH 7.5). Using white opaque luminescence plate on ice, 25 µl of the diluted worm acid supernatant was added each well in triplicates. Total glutathione lysis reagent and GSSG lysis reagent, which contains alkylating agent N-ethylmaleimide (25 mM) were prepared following manufactures protocol and added to respective wells along with blank for background. Total glutathione lysis reagent or oxidized glutathione lysis reagent (25 µl) was added to respective wells containing worm acid supernatants and the plate was shaken for 5 min. Luciferin generation reagent (LGR) (50 µl) was added to all wells, briefly shaken and incubated at room temperature for 30 min. Luciferin detection reagent (LDR) (100 µl) was added to all wells, briefly shaken and incubated for 15 min at room temperature and the luminescence measured using microplate imager (BioTek Cytation3). GSH/GSSH ratio for DMSO control and compounds were calculated using (Net DMSO total glutathione RFU) – (Net DMSO GSSG RFU)/ (Net DMSO GSSG RFU)/2 and (Net inhibitor total glutathione RFU) – (Net inhibitor GSSG RFU)/ (Net inhibitor GSSG RFU)/2 respectively.

[3] = 6 h preincubation (enzyme + 100 µM NADPH + compound), read-out: S. mansoni TGR inhibition (%) at 66.7 µM
[4] = TGR, 15 minutes pre-incubation, read-out: % inhibition
[5] = TGR, 6 hours pre-incubation, read-out: % inhibition
[6] = 1 hr, first data set (r117-133), baseline 55.82
[7] = 1 hr, first data set (r117-133), baseline = 100
[8] = 3 hr, first data set (r117-133), baseline 55.82
[9] = 3 hr, first data set (r117-133), baseline = 100

| Structure (SMILES) | LD50 ex vivo S. mansoni adult (S. mansoni adult worms [1]) [µM] | LD50 ex vivo VERO (Vero cells) | EC50 (Vero cells) [µM] | IC50 (S. mansoni TGR) [µM] | inhibition at 66.7 µM (S. mansoni TGR; [3]) [%] | Ratio GSH/GSSG (S. mansoni adult worms [2]; [6]) | % Ratio GSH/GSSG (S. mansoni adult worms [2]; [7]) [%] | Ratio GSH/GSSG (S. mansoni adult worms [2]; [8]) | % Ratio GSH/GSSG (S. mansoni adult worms [2]; [9]) [%] | Decrease (%) in GSH/GSSG ratio (S. mansoni adult worms [2]) [%] | further results |
| --- | --- | --- | --- | --- | --- | --- | --- | --- | --- | --- | --- |
| CCc1ccccc1-c1nc(CN[C@@H]2C[C@@H]3C[C@H]([C@H]2C)C3(C)C)c(C)o1 [Compound 2] | 12.5 ± 0.40 | 54.7 ± 6.65 µM | > 50 | > 66.7 | 28.7 | 34.19 | 61.2531 | 28.99 | 51.9337 | 39 | viability at 5 µM (S. mansoni adult worms [1]; Schistosoma mansoni, S. mansoni adult worms, Conc. 5 µM, read-out: % viability): 86.9%; viability at 10 µM (S. mansoni adult worms [1]; Schistosoma mansoni, S. mansoni adult worms, Conc. 10 µM, read-out: % viability): 59.5%; viability at 25 µM (S. mansoni adult worms [1]; Schistosoma mansoni, S. mansoni adult worms, Conc. 25 µM, read-out: % viability): 0.114%; viability at 35 µM (S. mansoni adult worms [1]; Schistosoma mansoni, S. mansoni adult worms, Conc. 35 µM): 0.0801%; inhibition at 15 µM (S. mansoni TGR; [4]): 4.35%; inhibition at 30 µM (S. mansoni TGR; [4]): 8.85%; inhibition at 66.7 µM (S. mansoni TGR; TGR, 15 minutes pre-incubation, compound 66.7 µM, read-out: % inhibition): 12.5%; inhibition at 15 µM (S. mansoni TGR; [5]): 12.1%; inhibition at 30 µM (S. mansoni TGR; [5]): 14.6%; inhibition at 66.7 µM (S. mansoni TGR; TGR, 6 hours pre-incubation, compound 66.7 µM, read-out: % inhibition): 28.7% |
| Cc1oc(-c2ccccc2)nc1CN[C@@H]1C[C@@H]2C[C@H]([C@H]1C)C2(C)C [Compound 3] | 12.1 ± 2.44 | 36.1 ± 3.0 µM | > 50 | > 66.7 | 45 | 29.86 | 53.4928 | 25.64 | 45.9343 | 62 | Reduction (%) in GSH/GSSG ratio (S. mansoni adult worms [2]; 1 hr): 60.3556%; Ratio GSH/GSSG (S. mansoni adult worms [2]; 1 hr, third data set (r147-159), 0hr 72.45): 28.72; % Ratio GSH/GSSG (S. mansoni adult worms [2]; 1 hr, third data set (r147-159), 0hr = 100): 39.6444%; Reduction (%) in GSH/GSSG ratio (S. mansoni adult worms [2]; 1 hr, (values given as fraction)): 0.60%; Reduction (%) in GSH/GSSG ratio (S. mansoni adult worms [2]; 3 hr): 70.1019%; Ratio GSH/GSSG (S. mansoni adult worms [2]; 3 hr, third data set (r147-159), 0hr 72.45): 21.66; % Ratio GSH/GSSG (S. mansoni adult worms [2]; 3 hr, third data set (r147-159), 0hr = 100): 29.8981%; Reduction (%) in GSH/GSSG ratio (S. mansoni adult worms [2]; 3 hr, (values given as fraction)): 0.70% |
| Cc1oc(C2CCCCC2)nc1CN[C@@H]1C[C@@H]2C[C@H]([C@H]1C)C2(C)C [Compound 4] | 12.6 ± 1.86 | >50^a µM |  | > 66.7 | 68.6 | 28.16 | 50.452 | 18.95 | 33.9548 | 60 |  |
